pEC50: −log10 of the molar value.
How the values were obtained:
Plasmodium falciparum [1] = assay: ST_JUDE: Plasmodium falciparum 3D7 EC50 (uM) as measured by SYBR green dye; assay type: functional, organism-based
Plasmodium falciparum [2] = assay: ST_JUDE: Plasmodium falciparum K1 EC50 (uM) as measured by SYBR green dye; assay type: functional, organism-based

Compound | pEC50 (Plasmodium falciparum [1]) | pEC50 (Plasmodium falciparum [2])
COc1ccc(CN2CCCN(C)CC2)cc1OCCC1CCCCN1C(=O)/C=C/c1cccs1 (stereo not drawn) | 5.40 | 5.83
CCN(CC)S(=O)(=O)c1ccc(C(=O)NNc2nc3c(C)cccc3s2)cc1 | < 4.82 | < 4.82
CC(C)Cn1c2c(c(=N)c3c1CCC3)CCCC2 | 5.65 | 5.42
O=C(NCCc1cccc(C(F)(F)F)c1)Nc1cc(C(F)(F)F)ccc1Cl | 5.51 | 5.62
CCN1CCN(CCCNC(=O)c2ccc3c(c2)sc2nc(-c4ccc(C)cc4)cn23)CC1 | 5.94 | 5.72
CCOc1ccc(Nc2nc(NCc3ccco3)c3ccccc3n2)cc1 | 5.93 | 5.58
COc1ccccc1OCCCCN1CCCC1 | < 4.82 | < 4.82
CCOc1ccc(NC2=C(NCCO)C(=O)c3ccccc3C2=O)cc1 | 5.45 | 5.31
Oc1ccc(Cl)cc1CN1CCN(Cc2ccccc2)CC1 | 5.99 | 6.31
Cc1ccc(NC(=O)c2ccc(Br)o2)c(Br)c1 | < 4.82 | < 4.82
Cc1ccc(-c2cc(-c3cc(Cl)ccc3O)[nH]n2)cc1 | 5.30 | 5.53
CCOC(=O)CCc1c(C)c2cc3c(c(C)c2oc1=O)OCN(Cc1ccccc1OC)C3 | 5.52 | 5.91
Cc1ccc(CN2CCCN(Cc3ccc(F)cc3)C2c2ccccc2F)cc1 (stereo not drawn) | 5.38 | < 4.82
COC(=O)c1c(S(=O)(=O)N2CCCN(C)CC2)sc2c1CCN(CC(C)c1ccccc1)C2 (stereo not drawn) | < 4.82 | < 4.82
CCCN1C(=O)c2[nH]nc(-c3c(C)cc(C)cc3O)c2C1c1ccc(OC)c(OC)c1 (stereo not drawn) | < 4.82 | < 4.82
Oc1ccc(Nc2nc(NCc3ccccc3)c3ccccc3n2)cc1 | 6.69 | < 4.82
Cc1nn(-c2ccccc2)c2ncc(C(=O)Nc3cccc(Cl)c3)c(O)c12 | < 4.82 | 5.37
CCN(CC)CCNC(=O)c1ccc2c(c1)sc1nc(-c3ccc(F)cc3)cn12 | 6.01 | 5.72
Oc1c(C(Nc2ccccn2)c2ccc(Cl)c(Cl)c2)ccc2cccnc12 (stereo not drawn) | 5.87 | 5.36
CCO/C(O)=C1\C(C)=NC2=C(C(=O)CC(c3ccccc3)C2)C1c1ccc(Cl)cc1 (stereo not drawn) | 5.41 | 5.17
Cc1ccc2ccc(C(Nc3ccccn3)c3ccccc3Br)c(O)c2n1 (stereo not drawn) | 5.83 | 5.88
CCOc1ccc(NC(=O)CSc2nncc(O)n2)cc1 | 6.13 | 6.00

Compound | pEC50 (Plasmodium falciparum [1]) | pEC50 (Plasmodium falciparum [2])
CCC(=O)N(Cc1ccccn1)c1nc2ccccc2s1 | < 4.82 | < 4.82
O=C(O)c1cccc(NC2=C(N3CCCCC3)C(=O)c3ccccc3C2=O)c1 | < 4.82 | 5.32
CCc1cc(-c2[nH]nc(C)c2Oc2ccc(Cl)cc2)c(O)cc1OC | 5.31 | 5.50
CCCN1C(=O)c2[nH]nc(-c3c(C)cc(C)cc3O)c2C1c1cccc(OC)c1 (stereo not drawn) | 5.29 | 5.57
CCc1c(C)c2cc3c(c(C)c2oc1=O)OCN(CCc1ccccc1OC)C3 | 6.12 | 6.65
C#CC[n+]1ccn2c(C)ccc2c1C | 5.25 | 5.77
Cc1nc2sc(C(c3ccc(Cl)c(Cl)c3)N3CCN(C)CC3)c(O)n2n1 (stereo not drawn) | < 4.82 | < 4.82
COc1[nH]cnc2c3cc(C)ccc3nc1-2 | < 4.82 | < 4.82
CCC1CCCCN1CC(O)COCCC12CC3CC(CC(C3)C1)C2 (stereo not drawn) | 5.14 | 5.57
Cc1c(C(=O)NCCCn2ccnc2)sc2nc(-c3cccc([N+](=O)[O-])c3)cn12 | < 4.82 | 5.04
CCOc1ccc(NC(=O)C2Sc3nnc(-c4ccccc4)n3NC2c2ccc(OC)cc2)cc1 (stereo not drawn) | < 4.82 | < 4.82
CCC(=O)NC(c1ccccc1OC)c1ccc2cccnc2c1O (stereo not drawn) | 5.64 | 5.37
CCCCCC(O)(c1ccc(F)cc1)C(CN1CCOCC1)c1ccc(Cl)cc1 (stereo not drawn) | 5.74 | 6.03
COc1ccc2ncc(C(=O)c3ccccc3)c(N3CCN(C)CC3)c2c1 | < 4.82 | < 4.82
C=CCNc1c2c(nc3ccccc13)CCC2 | 5.49 | 5.94
O=C(N/N=c1/oc2ccc(Br)cc2cc1-c1nc2ccccc2[nH]1)c1ccncc1 | 5.33 | < 4.82
CCOC(=O)c1cnc2c(C)c(C)ccc2c1Nc1cc([N+](=O)[O-])ccc1O | < 4.82 | < 4.82
Oc1c(CN2CCN(Cc3ccc4cccnc4c3O)CC2)ccc2cccnc12 | < 4.82 | 5.20
Cc1ccc(Nc2cc(C)nc(-n3cc([N+](=O)[O-])cn3)n2)cc1 | 5.14 | < 4.82
Clc1cccc(/C=N/Nc2[nH]cnc3ncnc2-3)c1 | 5.64 | 5.44
CCOc1ccc(C2c3cccn3CCN2C(=O)Nc2cccc(C)c2)cc1 (stereo not drawn) | < 4.82 | < 4.82
Cn1c(-c2ccc([N+](=O)[O-])cc2)[n+](C)c2ccccc21 | < 4.82 | 5.57

From ChEMBL document CHEMBL1154198, “Chemical genetics of Plasmodium falciparum” (Nature, 2010)
